In assay [1] the test system is KPC cells. As to the kind of experiment: macropinocytosis and mitochondria in KPC cells on ECM from Ilomastat-treated fibroblasts. It counts as cell-based, mouse. The following applies: ECM from Ilomastat-treated wild-type fibroblasts, LG medium, 24 h. The protocol:
FIGS. 12A-12M: Inhibition of Col I cleavage shuts down NRF2-driven macropinocytosis and mitochondrial biogenesis. FIG. 12A, MP and mitochondria in KPC cells plated on indicated ECM and incubated in LG for 24 h. Col IIB in indicated ECM preparations is shown on the right. FIG. 12B, IB of indicated proteins in above cells. FIG. 12C, MP and mitochondria in indicated KPC cells plated on R/R Col I^Δ ECM and incubated in LG for 24 h. FIG. 12D, LB of indicated proteins in 1305 cells plated on ECM produced by bacterial collagenase (CLG, 50 μg/ml) treated or untreated fibroblasts and incubated in LG medium −/+CLG for 24 h. FIG. 12E, Genes differentially expressed between KPC cells plated on indicated ECM. Light gray: replicates with low expression (z-score=−2); dark gray: replicates with high expression (z-score=+2). […] Quantitation on the right. […] Statistical significance determined by two-tailed t-test. ***P<0.001, ****P<0.0001. […]
Cells were cultured on coverslips coated with or without ECM and fixed in 4% paraformaldehyde for 10 min at room temperature or methanol for 10 min at —20° C. […] Images were captured and analysed using a TCS SPE Leica confocal microscope with Leica Application Suite AF 2.6.0.7266 software (Leica).
Macropinosomes or mitochondria were quantified by using the ‘Analyze Particles’ feature in Image J (NIH). […] Kaplan—Meier survival curves were analysed by log-rank test. […]

The subject of assay [2] is KPC cells. As to the kind of experiment: cell viability with tigecycline. Type of assay: cell-based, mouse. The settings on record: parental cells on wild-type ECM versus R/R ECM or DDR1^KD cells on wild-type ECM, LG medium. How it is done: (§1) FIGS. 14A-14J: Effect of macropinocytosis and mitochondria on Col I-controlled PDAC cell growth. FIG. 14A, Bromodeoxyuridine (BrdU) incorporation into KPC cells plated on ECM mixtures produced by R/R and WT fibroblasts (R:W). Scale bars, 10 μm. FIG. 14B, FIG. 14C, Paren. and IKKα^KD KPC (FIG. 14B) or KC (FIG. 14C) cells were plated −/+ WT or R/R ECM and incubated in LG −/+ indicated reagents. Viable cells were measured after 3 days and depicted relative to untreated plastic-plated Paren. cells. (FIG. 14C). IKKα KD efficiency is shown on the right (FIG. 14B). […] Total viable cells were measured as above and are presented relative to the untreated cells. FIG. 14H, Mitochondrial ATP production calculated from FIG. 6B. […] Quantification of the SR positive area is shown on the left. […] Statistical significance determined by two-tailed t-test. […]
(§2) Cells were plated in 96-well plates coated with or without ECM at a density of 3,000 cells (MIA, 1305) or 1,500 cells (KPC or KC) per well and incubated overnight before treatment. […] Cell viability was determined with a Cell Counting Kit-8 assay (Glpbio). Optical density was read at 450 nm and analysed using a microplate reader with SoftMax 6.5 software (FilterMax F5, Molecular Devices). […]

For the next assay, the system named is 1305 cells. Briefly: cell viability with tigecycline. The settings on record: parental cells on wild-type ECM versus R/R ECM or DDR1^KD cells on wild-type ECM, LG medium, 24 h. It counts as cell-based, human. The protocol: as §1, §2

From patent US20230341404A1, “TARGETING STROMA-CANCER INTERACTIONS IN CANCER” (The Regents of the University of California, priority 2022, published 2023) come the findings set out here.

In the case of `CNC(=O)[C@H](Cc1c[nH]c2ccccc12)NC(=O)[C@@H](CC(=O)NO)CC(C)C` [Ilomastat], the “behaviour of ECM from treated fibroblasts (macropinocytosis, mitochondria)” value in the assay on KPC cells [1] is given as “behaved like R/R ECM”.

On to `CN(C)c1cc(NC(=O)CNC(C)(C)C)c(O)c2c1C[C@H]1C[C@H]3[C@H](N(C)C)C(O)=C(C(N)=O)C(=O)[C@@]3(O)C(O)=C1C2=O` [tigecycline], for which the “sensitivity to tigecycline (viable cells)” value in the assay on KPC cells [2] and with 1305 cells was “more sensitive” each time.
